{
  "source": "paper PMC5225183",
  "about": "“Fingerprinting of neurotoxic compounds using a mouse embryonic stem cell dual luminescence reporter assay” (Archives of Toxicology, 2016)",
  "key": {"[1]": {"settings": "cited from earlier work"}, "[2]": {"assay": "PBPK reverse modeling of nominal equivalent concentration (NEC), human data", "description": "To evaluate the human relevance of in vitro concentrations found to be toxic in this study, an in vitro–in vivo comparison of the toxicity data was performed using a physiology-based pharmacokinetic (PBPK) reverse modeling approach. […] The lipid content and albumin concentrations of the test media N2 and BHK medium were calculated on the basis of the available information provided by the suppliers (Fig. S2A). The data on rat plasma have been adopted from (Verwei et al. [2006]). The original references are (Barber et al. [1990]) for albumin and (DeJongh et al. [1997]) for lipids. Human plasma values were taken from (Gulden and Seibert [2003]). The original data on albumin are from (Lindup [1987]) and for lipids from (Patterson et al. [1988]). Total protein concentrations were calculated based on the assumption that the protein molar mass is similar to the one of albumin (66 kDa). Albumin was assumed to represent 60 and 48 % of the total serum proteins (mg/ml) in human and rat (Baker et al. [1979]; Busher [1990]) (Fig. S2A).\n(a) Developmental toxicity (DT)—inducing concentrations were extrapolated from the in vivo study reported in the document by the Australian Therapeutic Goods Administration (Australian Therapeutic Goods Administration [2014]). In an embryo-fetal developmental toxicity study in rats, abiraterone acetate induced developmental toxicity when administered at oral doses of 10, 30 or 100 mg/kg/day throughout the period of organogenesis (gestational days 6–17). Findings include embryo-fetal lethality (increased postimplantation loss and decreased number of living fetuses), fetal developmental delay (skeletal effects), and urogenital effects (bilateral ureter dilation) at doses ≥10 mg/kg/day (Australian Therapeutic Goods Administration [2014]). (b) Toxicokinetic parameters of abiraterone in rats were extracted from the available report from the TGA (Australian Therapeutic Goods Administration [2014]). […] The average concentration (Cavg) was calculated from the ratio of AUC and the dose interval (τ) of 24 h. The percentage of plasma protein binding of the drug was reported as being 99.8 %, without relevant species differences occurring (US FDA [2011]). (c) The nominal in vitro concentrations equivalent to the concentration used in vivo were calculated using the value of total protein concentration instead of albumin concentration.\nClinical signs included malrotated forepaws/hindpaws, discoloration of the body surface, impaired coat growth, eye opacity, and eye discharge with absence of pupillary reflex were observed (US FDA [2012]). […] The Cavg was calculated as the ratio of AUC and the dose interval (τ) of 24 h. TF is reported to be extensively bound in plasma, probably mostly to albumin, with an average bound fraction of 99.46 % (Russo et al. [2013]). (c) The nominal in vitro concentrations equivalent to the concentration used in vivo in rats and humans (Cmax and Cavg) were determined assuming only binding to the specific drug-binding proteins (albumin and/or α1-acid glycoprotein) (Fig. S2D).\nTo compare the effective/toxic concentrations found in our study with relevant in vivo concentrations, we used a reverse pharmacokinetic modeling approach for three exemplary compounds: teriflunomide, geldanamycin, and abiraterone. Firstly, we used a literature data mining approach to identify toxic or clinically relevant plasma concentrations reported in published animal studies (in relation to developmental toxicity or neurotoxicity) or clinical measurements (mostly in relation to drug efficacy). Then those values were used as points-of-departure to calculate the nominal equivalent concentrations (NEC) in both cell culture media used in our study, the BHK and N2 medium. These two media (used to expose the ESCs and the ESC-derived neurons) contained different amounts of protein and lipid and therefore required separate calculations of the NEC. […]"}, "[3]": {"parameters": "method as in Australian Therapeutic Goods Administration [2014]", "settings": "rats, toxic dose level 10 mg/kg/day; ref Australian Therapeutic Goods Administration [2014]; cited from earlier work"}, "mice": {"system": "mice", "parameters": "method as in https://www.spectrumchemical.com/MSDS/TCI-G0334.pdf", "settings": "ref https://www.spectrumchemical.com/MSDS/TCI-G0334.pdf; cited from earlier work"}, "Thy1-GFP transgenic rats": {"system": "Thy1-GFP transgenic rats", "parameters": "method as in Sun et al. [2012]", "settings": "ref Sun et al. [2012]; cited from earlier work"}, "Toxicokinetics in rats": {"assay": "Toxicokinetics in rats", "format": "in vivo", "settings": "plasma, rat"}, "[4]": {"settings": "cited from earlier work", "remark": "listed apart in the source"}, "rats": {"system": "rats", "settings": "Sprague Dawley rats, GD 6 through LD 20; ref US FDA [2012]; cited from earlier work"}, "[5]": {"system": "neural crest cell migration", "parameters": "method as in Zimmer et al. [2012]", "settings": "ref Zimmer et al. [2012]; cited from earlier work"}, "[6]": {"system": "neuroepithelial precursor cell migration", "parameters": "method as in Zimmer et al. [2012]", "settings": "ref Zimmer et al. [2012]; cited from earlier work"}, "[7]": {"settings": "Sprague Dawley, oral, rats, 0.3 mg/kg, estimated proportional to reported kinetics at 1 mg/kg (US FDA [2012])"}},
  "note": "Like-named read-outs stand apart in the source and are kept apart here.",
  "data": [
    {"smiles": "C[C@]12CC[C@H](O)CC1=CC[C@@H]1[C@@H]2CC[C@]2(C)C(c3cccnc3)=CC[C@@H]12", "note": "[Abiraterone]", "values": [
      {"measurement": "AUC at steady state", "setting": "[1]; humans, daily oral dose of 1000 mg as abiraterone acetate, ref Goldberg and Berrios-Colon [2013]", "value": 1.173, "unit": "µg·h/mL"},
      {"measurement": "Cmax", "setting": "[1]; humans, daily oral dose of 1000 mg/kg as abiraterone acetate, ref Goldberg and Berrios-Colon [2013]", "value": 226, "unit": "ng/mL"},
      {"measurement": "Free concentration in vivo", "setting": "[2]; Cavg", "value": 0.353, "unit": "pM"},
      {"measurement": "Total concentration in vivo (ECpl)", "setting": "[2]; Cavg", "value": 0.14, "unit": "µM"},
      {"measurement": "Free concentration in vivo", "setting": "[2]; Cmax", "value": 1.63, "unit": "pM"},
      {"measurement": "Total concentration in vivo (ECpl)", "setting": "[2]; Cmax", "value": 0.647, "unit": "µM"},
      {"measurement": "AUC", "setting": "[3]", "value": 0.034, "unit": "µg·h/mL"},
      {"measurement": "Cmax", "setting": "[3]", "value": 10.8, "unit": "ng/mL"}
    ]},
    {"smiles": "COC1=C2C[C@@H](C)C[C@H](OC)[C@H](O)[C@@H](C)/C=C(\\C)[C@H](OC(N)=O)[C@@H](OC)/C=C\\C=C(/C)C(=O)NC(=CC1=O)C2=O", "note": "[Geldanamycin]", "values": [
      {"measurement": "LD50", "setting": "mice", "value": 1, "unit": "mg/kg"},
      {"measurement": "dose affecting nerve recovery / neurodifferentiation", "setting": "Thy1-GFP transgenic rats", "value": 0.2, "unit": "mg/kg/day"},
      {"measurement": "Cmax", "setting": "Toxicokinetics in rats; Thy1-GFP transgenic, dose of 0.2 mg/kg, calculated from mouse volume of distribution", "value": 1250, "unit": "ng/mL"},
      {"measurement": "aqueous solubility", "setting": "[4]", "value": "poor"}
    ]},
    {"smiles": "C/C(O)=C(\\C#N)C(=O)Nc1ccc(C(F)(F)F)cc1", "note": "[Teriflunomide]", "values": [
      {"measurement": "oral dose leading to teratogenicity", "setting": "rats", "value": 0.3, "unit": "mg/kg/day"},
      {"measurement": "24 h AUC at steady state", "setting": "[1]; healthy individuals, daily oral dose of 14 mg, ref Australian Therapeutic Goods Administration [2013]", "value": 1070, "unit": "µg·h/mL"},
      {"measurement": "AUC", "setting": "Toxicokinetics in rats; [7]", "value": "~33", "unit": "µg·h/mL"},
      {"measurement": "Cmax", "setting": "Toxicokinetics in rats; [7]", "value": "~3000", "unit": "ng/mL"},
      {"measurement": "Free concentration in vivo", "setting": "[2]; Cavg", "value": 280000, "unit": "pM"},
      {"measurement": "Total concentration in vivo (ECpl)", "setting": "[2]; Cavg", "value": 165, "unit": "µM"}
    ]},
    {"smiles": "CCCC(CCC)C(=O)O", "note": "[Valproic acid]", "values": [
      {"measurement": "concentration inhibiting neural crest cell migration", "setting": "[5]", "value": "10 to 100", "unit": "µM"},
      {"measurement": "concentration not affecting neuroepithelial precursor cell migration", "setting": "[6]", "value": "> 1", "unit": "mM"}
    ]}
  ]
}
